Data taken from patent US6465457B1 (priority 1991, dated 2002).
Where two headings read alike, the source gives them in different places.

Assays:
Format in all cases: in vivo
[1] = tested on: Thanatephorus cucumeries (Rice); assay: Foliar fungal disease test on plants: Thanatephorus cucumeries (Rice); conditions: one or two days before inoculation
[2] = tested on: Pyricularia oryzae (Rice); conditions: one or two days before inoculation
[3] = tested on: Septoria nodorum (Wheat); assay: Foliar fungal disease test on plants: Septoria nodorum (Wheat); conditions: one or two days before inoculation
[4] = tested on: Puccinia recondita (Wheat); assay: Foliar fungal disease test on plants: Puccinia recondita (Wheat); conditions: plants inoculated with Puccinia recondita 48 hours before treatment
[5] = tested on: Venturia inaequalis (Apples); assay: Foliar fungal disease test on plants: Venturia inaequalis (Apples); conditions: one or two days before inoculation
[6] = tested on: Phytophthora infestans (Tomatoes); conditions: one or two days before inoculation
[7] = tested on: Erysiphe graminis tritici (Wheat); assay: Foliar fungal disease test on plants: Erysiphe graminis tritici (Wheat); conditions: plants inoculated 24 hours before treatment
[8] = tested on: Plasmopara viticola (Vines); assay: Foliar fungal disease test on plants: Plasmopara viticola (Vines); conditions: one or two days before inoculation
[9] = 100 ppm a.i. foliar spray or root drench (approx. 40 ppm in dry soil)
[10] = 100 ppm a.i. foliar spray or root drench

| SMILES | POCO (Percentage of Control) disease level, Thanatephorus cucumeries (Rice) [1, 9] | POCO (Percentage of Control) disease level, Pyricularia oryzae (Rice) [2, 9] | POCO (Percentage of Control) disease level, Septoria nodorum (Wheat) [3, 9] | POCO (Percentage of Control) disease level, Puccinia recondita (Wheat) [4, 10] | POCO (Percentage of Control) disease level, Venturia inaequalis (Apples) [5, 9] | POCO (Percentage of Control) disease level, Phytophthora infestans (Tomatoes) [6, 9] | POCO (Percentage of Control) disease level, Erysiphe graminis tritici (Wheat) [7, 9] | POCO (Percentage of Control) disease level, Plasmopara viticola (Vines) [8, 9] | POCO (Percentage of Control) disease level, Thanatephorus cucumeries (Rice) ([1]; 10 ppm foliar spray only) | POCO (Percentage of Control) disease level, Pyricularia oryzae (Rice) ([2]; 10 ppm foliar spray only) | POCO (Percentage of Control) disease level, Septoria nodorum (Wheat) ([3]; 10 ppm foliar spray only) | POCO (Percentage of Control) disease level, Puccinia recondita (Wheat) ([4]; 10 ppm foliar spray only) | POCO (Percentage of Control) disease level, Venturia inaequalis (Apples) ([5]; 10 ppm foliar spray only) | POCO (Percentage of Control) disease level, Phytophthora infestans (Tomatoes) ([6]; 10 ppm foliar spray only) | POCO (Percentage of Control) disease level, Erysiphe graminis tritici (Wheat) ([7]; 10 ppm foliar spray only) | POCO (Percentage of Control) disease level, Plasmopara viticola (Vines) ([8]; 10 ppm foliar spray only) |
| --- | --- | --- | --- | --- | --- | --- | --- | --- | --- | --- | --- | --- | --- | --- | --- | --- |
| COC=C(C(=O)OC)c1ccccc1COC(=O)N(C)c1c(F)cccc1F [23 (2)] | 0 (0 = 0% disease present) | 0 (0 = 0% disease present) | 0 (0 = 0% disease present) | 0+ (0 = 0% disease present) | 0 (0 = 0% disease present) | 0 (0 = 0% disease present) | 0 (0 = 0% disease present) | 0 (0 = 0% disease present) |  |  |  |  |  |  |  |  |
| CCN(C(=O)OCc1ccccc1C(=COC)C(=O)OC)c1c(F)cccc1F [23 (3)] | 0 (0 = 0% disease present) | 1 (1 = 0.1-1% disease present) | 5 (5 = 3.1-5% disease present) | 0+ (0 = 0% disease present) | 0 (0 = 0% disease present) | 5 (5 = 3.1-5% disease present) | 0 (0 = 0% disease present) | 0 (0 = 0% disease present) |  |  |  |  |  |  |  |  |
| C=CCN(C(=O)OCc1ccccc1C(=COC)C(=O)OC)c1c(F)cccc1F [23 (101)] | 0 (0 = 0% disease present) | 0 (0 = 0% disease present) | 10 (10 = 5.1-10% disease present) | 0+ (0 = 0% disease present) | 0 (0 = 0% disease present) | 90 (90 and 94 = 60.1-100% disease present) | 0 (0 = 0% disease present) | 0 (0 = 0% disease present) |  |  |  |  |  |  |  |  |
| CCN(C(=O)OCc1ccccc1C(=COC)C(=O)OC)c1ccc(F)cc1F [24 (3)] | 0 (0 = 0% disease present) | 10 (10 = 5.1-10% disease present) | 0 (0 = 0% disease present) | 0+ (0 = 0% disease present) | 0 (0 = 0% disease present) | 60 (60 = 30.1-60% disease present) | 0 (0 = 0% disease present) | 0 (0 = 0% disease present) |  |  |  |  |  |  |  |  |
| COC=C(C(=O)OC)c1ccccc1OC(=O)Nc1ccc(F)cc1F [24 (17)] | 60 (60 = 30.1-60% disease present) | 0 (0 = 0% disease present) | 0 (0 = 0% disease present) | 0+ (0 = 0% disease present) | 0 (0 = 0% disease present) | 0 (0 = 0% disease present) | 0 (0 = 0% disease present) | 0 (0 = 0% disease present) |  |  |  |  |  |  |  |  |
| COC=C(C(=O)OC)c1ccccc1OC(=O)N(C)c1ccc(F)cc1F [24 (18)] |  |  |  |  |  |  |  |  | 90 (90 and 94 = 60.1-100% disease present) | 90 (90 and 94 = 60.1-100% disease present) | 90 (90 and 94 = 60.1-100% disease present) | 90+ (90 and 94 = 60.1-100% disease present) | 90 (90 and 94 = 60.1-100% disease present) | 90 (90 and 94 = 60.1-100% disease present) | 60 (60 = 30.1-60% disease present) | 90 (90 and 94 = 60.1-100% disease present) |
| COC=C(C(=O)OC)c1ccccc1COC(=O)Nc1cc(F)ccc1F [27 (1)] |  |  |  |  |  |  |  |  | 90 (90 and 94 = 60.1-100% disease present) | 30 (30 = 20.1-30% disease present) | 90 (90 and 94 = 60.1-100% disease present) | 90+ (90 and 94 = 60.1-100% disease present) | 90 (90 and 94 = 60.1-100% disease present) | 90 (90 and 94 = 60.1-100% disease present) | 90 (90 and 94 = 60.1-100% disease present) | 90 (90 and 94 = 60.1-100% disease present) |
| CCN(C(=O)OCc1ccccc1C(=COC)C(=O)OC)c1cc(F)ccc1F [27 (3)] | 0 (0 = 0% disease present) | 0 (0 = 0% disease present) | 30 (30 = 20.1-30% disease present) | 0+ (0 = 0% disease present) | 0 (0 = 0% disease present) | 20 (20 and 24 = 10.1-20% disease present) | 0 (0 = 0% disease present) | 0 (0 = 0% disease present) |  |  |  |  |  |  |  |  |
| COC=C(C(=O)OC)c1ccccc1COC(=O)Nc1ccc(F)c(F)c1 [28 (1)] |  |  |  |  |  |  |  |  | 90 (90 and 94 = 60.1-100% disease present) | 0 (0 = 0% disease present) | 30 (30 = 20.1-30% disease present) | 5+ (5 = 3.1-5% disease present) | 60 (60 = 30.1-60% disease present) | 90 (90 and 94 = 60.1-100% disease present) | 90 (90 and 94 = 60.1-100% disease present) | 30 (30 = 20.1-30% disease present) |
| COC=C(C(=O)OC)c1ccccc1COC(=O)N(C)c1ccc(F)c(F)c1 [28 (2)] | 0 (0 = 0% disease present) | 0 (0 = 0% disease present) | 0 (0 = 0% disease present) | 0+ (0 = 0% disease present) | 0 (0 = 0% disease present) | 10 (10 = 5.1-10% disease present) | 0 (0 = 0% disease present) | 0 (0 = 0% disease present) |  |  |  |  |  |  |  |  |
| CCN(C(=O)OCc1ccccc1C(=COC)C(=O)OC)c1ccc(F)c(F)c1 [28 (3)] | 0 (0 = 0% disease present) | 1 (1 = 0.1-1% disease present) | 0 (0 = 0% disease present) | 0+ (0 = 0% disease present) | 0 (0 = 0% disease present) | 20 (20 and 24 = 10.1-20% disease present) | 0 (0 = 0% disease present) | 0 (0 = 0% disease present) |  |  |  |  |  |  |  |  |
